Laboratory results: patent US20220249539A1, “BOLAAMPHIPHILIC COMPOUNDS, COMPOSITIONS AND USES THEREOF” (priority 2015, published 2022)

Experiments:
[1] = test system: patients' gliomas implanted in mice; conditions: cited from earlier work
[2] = test system: GBM; conditions: very little gets through the BBB and reaches the tumor; cited from earlier work
[3] = Fluorescence in mouse cerebral cortex after i.v. injection of albumin-FITC; format: in vivo; conditions: FIGS. 5A, 5B
Excerpt: In addition to the peptide leu-enkephalin, and the small molecules: CF, uranyl acetate, kyotorphin and sucrose, the inventors have also successfully encapsulated in these vesicles the proteins albumin and trypsinogen and the polysaccharide Dextran-FITC (MW 9000).

| Compound | potency rank against patients' gliomas implanted in mice ([1]; out of 40 drugs tested) | effectiveness against tumors tested ([1]; patients' gliomas implanted in mice) | outcome of attempts to treat GBM patients [2] | delivery of albumin-FITC to the brain (brain accumulation) [3] |
| --- | --- | --- | --- | --- |
| CCc1c2c(nc3ccc(OC(=O)N4CCC(N5CCCCC5)CC4)cc13)-c1cc3c(c(=O)n1C2)COC(=O)[C@]3(O)CC [CPT-11, (S)-4,11-diethyl-3,4,12,14-tetrahydro-4-hydroxy-3,14-dioxo1H-pyrano[3′,4′:6,7]-indolizino[1,2-b]quinolin-9-yl-[1,4′bipiperidine]-1′-carboxylate] | the most potent chemotherapeutic agent | effective against every tumor tested | unsuccessful | – |
| un-encapsulated albumin-FITC: albumin-FITC (non-encapsulated) | – | – | – | little, if any, brain accumulation |
